# Assay results as given in patent US20240148000A1, “METHOD FOR CONTROLLING HARMFUL ARTHROPODS OR HARMFUL NEMATODES USING ZOANTHAMINE” (SUMITOMO CHEMICAL COMPANY, LIMITED, priority 2021, published 2024).
# Key:
# [1] = tested on: cat flea (Ctenocephalides felis); assay: Test Method 11: coated container contact test, cat flea adults; format: in vivo; conditions: 20 mg/m^2 coated on inner face of container, after 2 days
# Protocol: (§1) Next, Test Examples are used to show efficacy of the Present compounds on controlling harmful arthropods and harmful nematodes. The following Test Examples were carried out at 25° C. Also, the “untreated group” represents a group where the similar treatment procedure to that of the treated group except not using the test compound is done.
# (§2) The test compound is dissolved into acetone containing a surfactant, then the solution is poured into a 20 mL container, the solution is coated uniformly on the inner face of the container so that the test compound will be 20 mg/m^2 and the surfactant will be 40 mg/m^2, and the container is then dried.
# Ten (10) cat flea (Ctenocephalides felis) adults are released into the container, and the container is then covered with lid. After the prescribed time, the state of the cat flea is examined, and the mortality is calculated by the following equation.
# (§3) Mortality (%)=(Number of dead insects/Number of tested insects)×100
# The test was conducted by making the prescribed time 2 days and using each of the below-mentioned Present compounds as a test compound.
# [2] = tested on: brown planthoppers (Nilaparvata lugens); assay: Test Method 5: foliar spray on rice seedling, brown planthoppers; format: in vivo; conditions: 200 ppm, sprayed 10 mL/seedling on rice, third-instar larvae, after 6 days
# Protocol: as §1
# The test compound is made to a formulation according to a similar method to that described in the Formulation Example 5, and thereto is added water containing 0.03 v/v % of Shindain (registered trademark) to prepare a diluted solution containing a prescribed concentration of the test compound.
# Rice (Oryza sativa) seedling (on the developmental stage of the second true leaf) is planted in a container, and the diluted solutions are sprayed to the seedling at a ratio of 10 mL/seedling. Thereafter, 20 of third-instar larvae of brown planthoppers (Nilaparvata lugens) are released onto the rice seedling. After 6 days, the number of the surviving insects is examined and the mortality of insects is calculated by the following equation.
# Mortality={1−Number of surviving insects/20}×100
# The test was conducted by making the prescribed concentration 200 ppm and using each of the below-mentioned Present compounds as a test compound according to the Test Method 5.
# [3] = tested on: diamondback moth (Plutella xylostella); assay: Test Method 2: foliar spray on cabbage seedling, diamondback moth larvae; format: in vivo; conditions: third-instar larvae, after 6 days
# Protocol: as §1
# (§4) Test compound is made to a formulation according to a similar method to that described in the Formulation Example 5, and thereto is added water containing 0.03 v/v % of Shindain (registered trademark) to prepare a diluted solution containing a prescribed concentration of the test compound.
# (§5) Cabbage (Brassicae oleracea) seedling (on the developmental stage of the third to fourth true leaf) is planted in a container, and the diluted solutions are sprayed to the seedling at a ratio of 20 mL/seedling. Thereafter, 10 of third-instar larvae of diamondback moth (Plutella xylostella) are released to the container. After 6 days, the number of the surviving insects is counted, and the mortality of insects is calculated by the following equation.
# (§6) Mortality (%)=(1−Number of surviving insects/10)×100
# The test was conducted by making the prescribed concentration 200 ppm and using each of the below-mentioned Present compounds as a test compound according to the Test Method 2.
# The test was conducted by making the prescribed concentration 500 ppm and using the below-mentioned Present compound as a test compound according to the Test Method 2 except for formulating it according to the Formulation Example 1 instead of the Formulation Example 5.
# [4] = tested on: cotton worm (Spodoptera litura); assay: Test Method 1: foliar spray on cabbage seedling, cotton worm larvae; format: in vivo; conditions: 200 ppm, sprayed 20 mL/seedling on cabbage, third-instar larvae, after 6 days, Formulation Example 5, 25° C.
# Protocol: as §1, §4
# as §5, with “cotton worm (Spodoptera litura)” for “diamondback moth (Plutella xylostella)”, “released.” for “released to the container.”
# as §6
# The test was conducted by making the prescribed concentration 200 ppm and using each of the below-mentioned Present compounds as a test compound according to the Test Method 1.
# [5] = tested on: common house mosquito (Culex pipiens pallens) last instar larvae; assay: Test Method 9: common house mosquito larvae in diluted solution; format: in vivo; conditions: 3.5 ppm in water, Formulation Example 1, last instar larvae, after 1 day
# Protocol: as §1
# The test compound is made to a formulation according to a similar method to that described in the Formulation Example 1, and thereto is added water to prepare a diluted solution containing a prescribed concentration of the test compound.
# Into the diluted solution, 30 last instar larvae of common house mosquito (Culex pipiens pallens) are released, and after 1 day, the state of the common house mosquito larvae is examined, and the mortality of insects is calculated by the following equation.
# as §3
# The test was conducted by making the prescribed concentration 3.5 ppm and using each of the below-mentioned Present compounds as a test compound according to the Test Method 9.
# [6] = tested on: southern root-knot nematodes (Meloidogyne incognita); assay: Test Example 12: tomato seedlings in soil contaminated with southern root-knot nematodes; format: in vivo; conditions: 60 mg in 60 mL: 20 mL mixed with 400 mL contaminated soil, 40 mL irrigated; tomato roots after 28 days; untreated group 5
# Protocol: as §1
# The Present compound 1 or 2 (60 mg) was dissolved into acetone (600 μL) containing 5% of Tween 20, and then thereto was added water to prepare a solution (60 mL).
# The solution (20 mL) and soil (400 mL) contaminated with southern root-knot nematodes (Meloidogyne incognita) were mixed, and roots of healthy tomato (Lycopersicon esculentum) seedlings (third to fourth leaf stage) were transferred to the soil. Shortly after the transfer, the remaining solution (40 mL) was irrigated to the soil of the tomato seedlings.
# After 28 days, the roots were pulled out of the soil, washed with water, and the degree of root damage (degree of root-knot) was investigated according to the Zeck's root-knot index (Zeck, W. M. (1971): Pflanzenschutz-Nachichten. Bayer AG, 24, 141-144.).
# • 0: No root-knot is observed. • 1: Several small root-knots can be recognized by careful observation. • 2: Several small root-knots similar to 1 can be easily identified. • 3: There are many small root-knots, and some of which are fused. […]
# [7] = tested on: common house mosquito (Culex pipiens pallens) female adults; assay: Test Method 10: coated container contact test, common house mosquito female adults; format: in vivo; conditions: 10 mg/m^2 coated on inner face of container, after 1 day
# Protocol: as §1
# as §2, with “be 10” for “be 20”
# Five (5) common house mosquito (Culex pipiens pallens) female adults are released into the container, and the container is then covered with lid. After the prescribed time, the state of the common house mosquito is examined, and the mortality is calculated by the following equation.
# as §3
# The test was conducted by making the prescribed time 1 day and using each of the below-mentioned Present compounds as a test compound.
# [8] = tested on: P388 mouse leukemia cells; conditions: Nonpatent Document 2; cited from earlier work
# [9] = 200 ppm, sprayed 20 mL/seedling on cabbage, Formulation Example 5, 25° C.
Molecule,mortality [1] [%],mortality [2] [%],"mortality [3, 9] [%]",mortality [4] [%],mortality [5] [%],root-knot index (Zeck's root-knot index) [6],mortality [7] [%],"mortality ([3]; 500 ppm, Formulation Example 1 instead of 5, sprayed 20 mL/seedling on cabbage) [%]",growth of P388 mouse leukemia cells [8]
CC1=CC(=O)[C@H]2CC(=O)[C@H]3[C@@](C)(C[C@@]45OC(=O)C[C@]3(C)[C@]4(C)CC[C@]34C[C@@H](C)C[C@H](CN35)O4)[C@@H]2C1 [compound 1],100,100,100,100,100,2 (Several small root-knots similar to 1 can be easily identified.),100,,
CC1=CC(=O)[C@@H]2[C@@H](C1)[C@]1(C)C(=O)[C@@]34OC(=O)C[C@@](C)([C@H]1C(=O)[C@@H]2C)[C@]3(C)CC[C@]12C[C@@H](C)C[C@H](CN14)O2 [compound 4],,,,,100,,,80,
CC1=CC(=O)[C@@H]2[C@@H](C1)[C@]1(C)C[C@@]34OC(=O)C[C@@](C)([C@H]1C(=O)[C@@H]2C)[C@]3(C)CC[C@]12C[C@@H](C)C[C@H](CN14)O2 [compound 2],100,100,100,100,100,2 (Several small root-knots similar to 1 can be easily identified.),100,,
norzoanthamine [Present compound 1],,,,,,,,,inhibits the growth
CC1=CC(=O)[C@H]2CC(=O)[C@H]3[C@@](C)(C(=O)[C@@]45OC(=O)C[C@]3(C)[C@]4(C)CC[C@]34C[C@@H](C)C[C@H](CN35)O4)[C@@H]2C1 [compound 3],,,,,100,,,,
CC1=CC(=O)[C@H]2CC(=O)[C@H]3[C@@](C)(C[C@@]45OC(=O)C[C@]3(C)[C@]4(C)CC[C@]34C[C@@H](C)C[C@H](CN35)O4)[C@@H]2C1.Cl [compound 5],,100,100,100,,,100,,
CC1=CC(=O)[C@@H]2[C@@H](C1)[C@]1(C)C[C@@]34OC(=O)C[C@@](C)([C@H]1C(=O)[C@@H]2C)[C@]3(C)CC[C@]12C[C@@H](C)C[C@H](CN14)O2.Cl [compound 6],,100,100,100,,,100,,
